From article PMC12155096 (International Journal of Molecular Sciences, 2025)
Where two headings read alike, the source gives them in different places.

Key:
human CYP2C19 [1] = biological target: T1, human CYP2C19 (Homo sapiens, UniProt P33261); conditions: for CYP2C19 Efficacy (in parenthesis): human
human CYP1A2 [2] = biological target: T2, human CYP1A2 (Homo sapiens, UniProt P05177); test: biochemical
T2 sequence (P05177 1-516): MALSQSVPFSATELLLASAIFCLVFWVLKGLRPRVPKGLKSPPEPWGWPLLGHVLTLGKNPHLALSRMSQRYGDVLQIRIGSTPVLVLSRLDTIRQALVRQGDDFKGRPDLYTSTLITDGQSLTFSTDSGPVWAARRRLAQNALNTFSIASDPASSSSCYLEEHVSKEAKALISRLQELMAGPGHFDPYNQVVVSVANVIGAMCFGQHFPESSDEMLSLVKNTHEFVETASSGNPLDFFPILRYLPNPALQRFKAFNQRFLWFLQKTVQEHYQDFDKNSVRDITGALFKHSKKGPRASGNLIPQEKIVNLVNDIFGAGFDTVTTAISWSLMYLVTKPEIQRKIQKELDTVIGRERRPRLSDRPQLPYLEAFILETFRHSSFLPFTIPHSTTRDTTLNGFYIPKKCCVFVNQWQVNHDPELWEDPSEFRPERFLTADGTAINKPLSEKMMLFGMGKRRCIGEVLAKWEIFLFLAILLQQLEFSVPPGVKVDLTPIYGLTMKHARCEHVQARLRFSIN

CYP3A4 [3] = biological target: T3, CYP3A4 (Homo sapiens, UniProt P08684); test: biochemical; conditions: for IC50: CYP3A4 IC50 (half-maximal inhibitory concentration)
T3 sequence (P08684 whole entry): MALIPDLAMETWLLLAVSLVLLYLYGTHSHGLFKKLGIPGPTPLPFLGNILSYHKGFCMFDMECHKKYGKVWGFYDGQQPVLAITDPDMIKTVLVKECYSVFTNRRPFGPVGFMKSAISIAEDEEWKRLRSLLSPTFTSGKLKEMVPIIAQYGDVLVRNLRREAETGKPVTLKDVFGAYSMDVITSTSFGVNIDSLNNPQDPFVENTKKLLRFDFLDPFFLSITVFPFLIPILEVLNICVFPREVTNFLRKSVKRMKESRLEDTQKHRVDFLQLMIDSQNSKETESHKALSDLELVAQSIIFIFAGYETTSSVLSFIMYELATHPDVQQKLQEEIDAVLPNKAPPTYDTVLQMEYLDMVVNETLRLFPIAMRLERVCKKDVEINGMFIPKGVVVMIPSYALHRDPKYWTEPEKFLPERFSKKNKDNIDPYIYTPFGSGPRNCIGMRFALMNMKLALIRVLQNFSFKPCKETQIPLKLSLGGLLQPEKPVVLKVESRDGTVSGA

human CYP2C9 [4] = biological target: T4, human CYP2C9 (Homo sapiens, UniProt P11712); test: P450-Glo CYP2C9 inhibition qHTS
T4 sequence (P11712 whole entry): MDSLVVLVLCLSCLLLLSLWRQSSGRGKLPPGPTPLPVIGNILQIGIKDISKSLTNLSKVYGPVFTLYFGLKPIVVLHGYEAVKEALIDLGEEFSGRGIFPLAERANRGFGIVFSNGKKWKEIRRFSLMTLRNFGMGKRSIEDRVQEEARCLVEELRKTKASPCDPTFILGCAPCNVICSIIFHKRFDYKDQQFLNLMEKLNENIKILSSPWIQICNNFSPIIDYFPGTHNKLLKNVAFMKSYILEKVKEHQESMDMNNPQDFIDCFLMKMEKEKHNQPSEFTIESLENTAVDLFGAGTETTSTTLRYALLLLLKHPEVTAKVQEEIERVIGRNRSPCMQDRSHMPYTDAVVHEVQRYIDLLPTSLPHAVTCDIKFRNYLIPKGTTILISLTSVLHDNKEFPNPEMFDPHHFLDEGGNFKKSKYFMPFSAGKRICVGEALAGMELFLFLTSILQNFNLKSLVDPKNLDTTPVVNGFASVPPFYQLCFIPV

human CYP2D6 [5] = biological target: T5, human CYP2D6 (Homo sapiens, UniProt P10635); test: P450-Glo CYP2D6 inhibition qHTS
T5 sequence (P10635 whole entry): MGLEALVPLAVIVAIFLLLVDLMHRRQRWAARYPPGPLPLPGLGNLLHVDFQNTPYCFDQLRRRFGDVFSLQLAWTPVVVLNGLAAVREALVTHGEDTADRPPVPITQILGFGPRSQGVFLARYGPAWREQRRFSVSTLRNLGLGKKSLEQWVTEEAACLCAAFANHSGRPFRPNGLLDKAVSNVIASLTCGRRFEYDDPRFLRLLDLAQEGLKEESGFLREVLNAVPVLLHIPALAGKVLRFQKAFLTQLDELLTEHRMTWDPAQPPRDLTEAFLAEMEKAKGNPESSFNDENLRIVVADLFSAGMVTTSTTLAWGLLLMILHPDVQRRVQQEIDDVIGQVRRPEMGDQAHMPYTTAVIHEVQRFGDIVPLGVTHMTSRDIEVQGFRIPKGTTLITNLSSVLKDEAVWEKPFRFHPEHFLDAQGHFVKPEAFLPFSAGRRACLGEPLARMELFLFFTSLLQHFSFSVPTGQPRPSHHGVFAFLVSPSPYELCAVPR

human CYP1A2 [6] = biological target: T2, human CYP1A2
human CYP2D6 [7] = biological target: T5, human CYP2D6; conditions: for CYP2D6 Efficacy (in parenthesis): human
human CYP2C9 [8] = biological target: T4, human CYP2C9; test: biochemical
human CYP2C19 [9] = biological target: T1, human CYP2C19; test: P450-Glo CYP2C19 inhibition qHTS
[10] = biological target: Photinus pyralis (firefly) luciferase (Photinus pyralis, UniProt P08659); test: biochemical; assay type: biochemical
Sequence of Photinus pyralis (firefly) luciferase (P08659 whole entry): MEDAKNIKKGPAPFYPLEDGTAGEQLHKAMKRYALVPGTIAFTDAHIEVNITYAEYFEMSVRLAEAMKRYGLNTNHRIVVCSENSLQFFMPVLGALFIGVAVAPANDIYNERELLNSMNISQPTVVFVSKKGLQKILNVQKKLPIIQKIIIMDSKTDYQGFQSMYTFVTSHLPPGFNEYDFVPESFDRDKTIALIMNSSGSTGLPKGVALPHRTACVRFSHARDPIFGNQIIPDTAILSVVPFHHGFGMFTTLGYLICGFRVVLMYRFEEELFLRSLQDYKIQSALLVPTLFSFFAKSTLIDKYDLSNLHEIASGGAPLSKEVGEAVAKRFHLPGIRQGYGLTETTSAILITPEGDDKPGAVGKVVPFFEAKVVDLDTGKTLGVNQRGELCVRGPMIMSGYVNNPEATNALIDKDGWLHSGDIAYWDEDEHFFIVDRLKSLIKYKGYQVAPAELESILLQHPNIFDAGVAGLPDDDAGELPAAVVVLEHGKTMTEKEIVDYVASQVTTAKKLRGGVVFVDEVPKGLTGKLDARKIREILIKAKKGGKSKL

CYP3A4 [11] = biological target: T3, CYP3A4
human CYP2C19 [12] = biological target: T1, human CYP2C19; test: biochemical
human CYP2D6 [13] = biological target: T5, human CYP2D6; test: biochemical
[14] = in vivo; cited from earlier work
human CYP2C9 [15] = biological target: T4, human CYP2C9; conditions: for CYP2C9 Efficacy (in parenthesis): human
CYP3A4 [16] = biological target: T3, CYP3A4; test: in vitro
[17] = CYP1A2 IC50 (half-maximal inhibitory concentration)
[18] = CYP2C9 IC50 (half-maximal inhibitory concentration)
[19] = CYP2C19 IC50 (half-maximal inhibitory concentration)
[20] = CYP2D6 IC50 (half-maximal inhibitory concentration)

T1 sequence (P33261 whole entry): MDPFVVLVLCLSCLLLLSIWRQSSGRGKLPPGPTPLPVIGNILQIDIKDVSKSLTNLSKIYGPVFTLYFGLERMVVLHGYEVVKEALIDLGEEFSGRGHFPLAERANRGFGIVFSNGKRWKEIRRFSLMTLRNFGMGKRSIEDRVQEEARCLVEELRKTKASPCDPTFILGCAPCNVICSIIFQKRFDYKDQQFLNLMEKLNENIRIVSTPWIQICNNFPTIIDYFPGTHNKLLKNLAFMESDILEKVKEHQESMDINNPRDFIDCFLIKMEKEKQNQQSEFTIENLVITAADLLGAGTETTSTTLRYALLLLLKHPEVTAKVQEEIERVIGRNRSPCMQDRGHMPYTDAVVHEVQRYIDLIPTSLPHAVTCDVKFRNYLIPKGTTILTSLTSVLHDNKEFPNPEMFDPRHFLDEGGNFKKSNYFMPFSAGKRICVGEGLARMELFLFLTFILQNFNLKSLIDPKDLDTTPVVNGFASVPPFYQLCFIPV

SMILES | AC50 (CYP3A4 [3]) | Luciferase IC50 (half-maximal inhibitory concentration) [10] | CYP1A2 Efficacy (in parenthesis) (human CYP1A2 [6]; human) | CYP2C9 Efficacy (in parenthesis) (human CYP2C9 [15]) | CYP2C19 Efficacy (in parenthesis) (human CYP2C19 [1]) | CYP2D6 Efficacy (in parenthesis) (human CYP2D6 [7]) | CYP3A4 Efficacy (in parenthesis) (CYP3A4 [11]) | IC50 (human CYP1A2 [2]; [17]) | IC50 (human CYP2C9 [8]; [18]) | IC50 (human CYP2C19 [12]; [19]) | IC50 (human CYP2D6 [13]; [20]) | IC50 (CYP3A4 [3]) | other results
CC(C)(c1ccccc1)c1ccccc1 [2,2-Diphenylpropane] | 34.4 ± 11.7 µM | – | – | – | – | – | – | – | – | – | – | – | CYP2C19 AC50 (half-maximal activity concentration) (human CYP2C19 [1]): Inactive; AC50 (human CYP1A2 [2]): 58.8 µM; CYP2C9 AC50 (half-maximal activity concentration) (human CYP2C9 [4]): Inconclusive inhibitor; CYP2D6 AC50 (half-maximal activity concentration) (human CYP2D6 [5]): Inconclusive inhibitor
CN(CC1(C)CCCO1)S(=O)(=O)c1ccc(Cl)c(S(N)(=O)=O)c1 (stereo not drawn) [Mefruside] | 15.8 ± 3.61 µM | – | – | – | – | – | – | – | – | – | – | – | CYP1A2 AC50 (half-maximal activity concentration) (human CYP1A2 [6]): Inactive; CYP2D6 AC50 (half-maximal activity concentration) (human CYP2D6 [7]): Inactive; AC50 (human CYP2C9 [8]): 13.3 ± 8.76 µM; CYP2C19 AC50 (half-maximal activity concentration) (human CYP2C19 [9]): Inconclusive inhibitor
CSC(=O)c1cccc2nnsc12 [Acibenzolar-S-methyl] | – | Inactive | – | – | – | – | – | – | – | – | – | – | CYP1A2 Efficacy (in parenthesis) (human CYP1A2 [6]; mean ± standard deviation from three experiments, negative = inhibition): 0.77 ± 0.11 (-94 ± 7) %; CYP3A4 IC50 (half-maximal inhibitory concentration) (CYP3A4 [11]): Inactive; IC50 (human CYP1A2 [2]): 0.77 µM; IC50 (human CYP2C9 [8]): 8.65 µM; IC50 (human CYP2C19 [12]): 13.2 µM; IC50 (human CYP2D6 [13]): 34.3 µM; CYP2C9 Efficacy (in parenthesis) (human CYP2C9 [4]; human): 8.65 ± 1.19 (-93 ± 9) %; CYP2D6 Efficacy (in parenthesis) (human CYP2D6 [5]; human): 34.28 ± 2.23 (-79 ± 6) %; CYP2C19 Efficacy (in parenthesis) (human CYP2C19 [9]; human): 13.25 ± 2.38 (-133 ± 9) %
COC(=O)[C@@H]1[C@H]2C[C@H]3c4[nH]c5ccccc5c4CCN3C[C@@H]2CC[C@@H]1O [Yohimbine, reference compound] | – | Inactive | – | – | – | – | – | – | – | – | – | – | Cmax (maximum plasma concentration) [14]: 0.075 µg/mL
C=CCN1C[C@H](C(=O)N(CCCN(C)C)C(=O)NCC)C[C@@H]2c3cccc4[nH]cc(c34)C[C@H]21 [Cabergoline] | – | – | – | – | – | – | – | – | – | – | – | – | Luciferase IC50 [10]: Inactive; CYP1A2 IC50 (human CYP1A2 [6]): Inactive; CYP2C9 IC50 (human CYP2C9 [15]): Inactive; CYP2C19 IC50 (human CYP2C19 [1]): Inactive; IC50 (CYP3A4 [16]): 1.02 µM; IC50 (human CYP2D6 [13]; CYP2D6 IC50): 1.47 µM
FC(F)C(F)(F)OCC(Cn1cncn1)c1ccc(Cl)cc1Cl (stereo not drawn) [Tetraconazole] | – | Inactive | 6.09 ± 0.84 (-101 ± 7) % | 1.84 ± 0.12 (-114 ± 7) % | 0.02 ± 0.0 (-134 ± 5) % | 12.32 ± 3.08 (-113 ± 2) % | 0.25 ± 0.06 (-66 ± 2) % | 6.09 µM | 1.84 µM | 0.02 µM | 12.3 µM | 0.25 µM | –
O=S(=O)(Oc1ccc(Cl)cc1)c1ccc(Cl)cc1 [Chlorfenson] | – | Inactive | 3.21 ± 1.48 (-95 ± 14) % | 18.81 ± 7.04 (-92 ± 16) % | 0.14 ± 0.02 (-95 ± 43) % | 21.56 ± 9.06 (-95 ± 15) % | 6.8 ± 1.64 (41 ± 6) % | 3.21 µM | 18.8 µM | 0.14 µM | 21.6 µM | 6.8 µM | –
CCC1COC(Cn2cncn2)(c2ccc(Cl)cc2Cl)O1 (stereo not drawn) [Etaconazole] | – | Inactive | 31.85 ± 3.66 (-69 ± 5) % | 5.71 ± 1.07 (-109 ± 6) % | 0.32 ± 0.04 (-137 ± 10) % | 45.4 ± 9.51 (-42 ± 2) % | 0.1 ± 0.01 (-79 ± 1) % | 31.9 µM | 5.71 µM | 0.32 µM | 45.4 µM | 0.1 µM | –
CCc1c(C(=O)NN2CCCCC2)nn(-c2ccc(Cl)cc2Cl)c1-c1ccc(Br)cc1 [Surinabant] | 4.12 ± 1.72 µM | – | – | – | – | – | – | – | – | – | – | – | CYP1A2 AC50 (half-maximal activity concentration) (human CYP1A2 [6]): Inactive; CYP2D6 AC50 (half-maximal activity concentration) (human CYP2D6 [7]): Inactive; AC50 (human CYP2C9 [8]): 8.32 ± 1.06 µM; CYP2C19 AC50 (half-maximal activity concentration) (human CYP2C19 [9]): Inconclusive inhibitor
